Data published in patent US7973069B2 (PTC Therapeutics, Inc., priority 2004, dated 2011).
Where “and” joins values, the source holds several entries; their conditions need not be identical. Equal entries are not always repeated.

These compounds were tested on HCV replicon.
Assay type: cell-based

| SMILES | IC50 |
| --- | --- |
| CCn1c(-c2ccc(N3CCNC3=O)cc2)c(C#N)c2ccc(OCCCN3CCCC3)cc21 [Compound 1085] | < 0.5 µM |
| CCCn1c(-c2ccc(NS(=O)(=O)C3CC3)cc2)c(C#N)c2cc(OC)ccc21 [Compound 998] | 0.5 to 2 µM |
| CCOc1ccc2c(C#N)c(-c3ccc(NC(=O)C4CCC4)cc3)n(CC)c2c1 [Compound 899] | 0.5 to 2 µM |
| CCOc1ccc2c(C#N)c(-c3ccc(NC(=O)NCCc4ccccc4)cc3)n(C(C)C)c2c1 [Compound 1102] | < 0.5 µM |
| CCCn1c(-c2ccc(NC(=O)NCC)cc2)c(C#N)c2cc(OC)ccc21 [Compound 999] | 0.5 to 2 µM |
| CCOC(=O)Nc1ccc(-c2c(C#N)c3ccc(OC(F)(F)F)cc3n2CC)cc1 [Compound 887] | 0.5 to 2 µM |
| CCn1c(-c2ccc(N3CCCS3(=O)=O)cc2)c(C#N)c2ccc(Oc3cnccn3)cc21 [Compound 1053] | 0.5 to 2 µM |
| CCn1c(-c2ccc(NC(=O)NC(C)C)cc2)c(C#N)c2ccc(OC(F)F)cc21 [Compound 1137] | 0.5 to 2 µM |
| CCNC(=O)Nc1ccc(-c2c(C#N)c3ccc(OCC)cc3n2CC2CC2)cc1 [Compound 1156] | < 0.5 µM |
| CC(C)OC(=O)Nc1ccc(-c2c(C#N)c3ccc(Oc4ncccn4)cc3n2C2CCC2)cc1F [Compound 2336] | < 0.5 µM |
| CCn1c(-c2ccc(NC(=O)C3CC3)cc2)c(C#N)c2ccc(OCCN3CCOCC3)cc21 [Compound 1025] | 0.5 to 2 µM |
| CCn1c(-c2ccc(NC(=O)OC(C)(C)C)cc2)c(C#N)c2ccc(Br)cc21 [Compound 1048] | 0.5 to 2 µM |
| CCOc1ccc2c(C#N)c(-c3ccc(NC(=O)OC(C)C)cc3)n(CC3CC3)c2c1 [Compound 1150] | < 0.5 µM |
| CCn1c(-c2ccc(NC(=O)C3CC3)cc2)c(C#N)c2ccc(OCCN(C)CCOC)cc21 [Compound 1091] | 0.5 to 2 µM |
| CC(C)NC(=O)Nc1ccc(-c2c(C#N)c3ccc(OCCCN4CCN(C)CC4)cc3n2C2CCC2)cc1 [Compound 1307] | 0.5 to 2 µM |
| CCn1c(-c2ccc(NC(=O)OCCCl)cc2)c(C#N)c2ccc(OCCCN3CCOCC3)cc21 [Compound 1116] | 0.5 to 2 µM |
| CCn1c(-c2ccc(NC(=O)OCC(C)C)cc2)c(C#N)c2ccc(OC(F)F)cc21 [Compound 1134] | 0.5 to 2 µM |
| COc1ccc2c(C#N)c(-c3ccc(N4CCCS4(=O)=O)cc3)n(C3CCC3)c2c1 [Compound 1104] | 0.5 to 2 µM |
| CCCOC(=O)Nc1ccc(-c2c(C#N)c3ccc(OCC)cc3n2CC2CC2)cc1 [Compound 1149] | < 0.5 µM |

| SMILES | IC50 |
| --- | --- |
| CCN(CC)CCCOc1ccc2c(C#N)c(-c3ccc(NC(=O)OC(C)C)cc3)n(C3CCC3)c2c1 [Compound 1260] | < 0.5 µM |
| CCn1c(-c2ccc(N3CCNC3=O)cc2)c(C#N)c2ccc(OCCCCl)cc21 [Compound 1051] | 0.5 to 2 µM |
| CCn1c(-c2ccc(NC(=O)NCCCl)cc2)c(C#N)c2ccc(OCCCN3CCOCC3)cc21 [Compound 1126] | 0.5 to 2 µM |
| CCCOc1ccc2c(C#N)c(-c3ccc(NC(=O)OC4CCOC4)cc3)n(C(C)C)c2c1 (stereo not drawn) [Compound 1249] | < 0.5 µM |
| CCOC(=O)Nc1ccc(-c2c(C#N)c3ccc(OCCCCl)cc3n2CC)cc1 [Compound 1031] | < 0.5 µM |
| N#Cc1c(-c2ccc(NC(=O)OCC3CCC3)cc2)n(C2CCC2)c2cc(OCC3CCCO3)ccc12 (stereo not drawn) [Compound 1287] | < 0.5 µM |
| COc1ccc2c(c1)c(C#N)c(-c1ccc(NS(=O)(=O)C3CC3)cc1)n2C1CCC1 [Compound 1182] | < 0.5 µM and > 2 µM |
| CCCOc1ccc2c(C#N)c(-c3ccc(NC(=O)OCC(C)C)cc3)n(C(C)C)c2c1 [Compound 1206] | < 0.5 µM |
| CCOc1ccc2c(C#N)c(-c3ccc(NC(=O)OC(C)C)cc3)n(C(C)C)c2c1 [Compound 1058] | < 0.5 µM |
| CCn1c(-c2ccc(NC(=O)OCC(C)C)cc2)c(C#N)c2ccc(OCCF)cc21 [Compound 947] | < 0.5 µM |
| COc1ccc2c(C#N)c(-c3ccc(NS(=O)(=O)C4CC4)cc3)n(CC3CCCC3)c2c1 [Compound 890] | 0.5 to 2 µM |
| CCn1c(-c2ccc(NC(=O)C3CC3)cc2)c(C#N)c2ccc(OCCN3CCN(C)CC3)cc21 [Compound 952] | 0.5 to 2 µM |
| CCN(C)CCOc1ccc2c(C#N)c(-c3ccc(NC(=O)NC(C)C)cc3)n(C3CCC3)c2c1 [Compound 1320] | < 0.5 µM |
| C=CCOC(=O)Nc1ccc(-c2c(C#N)c3ccc(OCC)cc3n2C2CCC2)cc1 [Compound 981] | < 0.5 µM |
| CCCCOC(=O)Nc1cccc(-c2c(C#N)c3ccc(OCCCN4CCOCC4)cc3n2CC)c1 [Compound 1042] | 0.5 to 2 µM |
| CCCCn1c(-c2cccc(NC(=O)OCC)c2)c(C#N)c2ccc(OCC)cc21 [Compound 1020] | < 0.5 µM and 0.5 to 2 µM |
| CCOc1ccc2c(C#N)c(-c3ccc(NC(=O)NC(C)CC)cc3)n(C3CCC3)c2c1 (stereo not drawn) [Compound 1159] | < 0.5 µM |
| COc1ccc2c(C#N)c(-c3ccc(NC(=O)OC(C)C)cc3)n(C3CCC3)c2c1 [Compound 1076] | < 0.5 µM |
| CCCOC(=O)Nc1ccc(-c2c(C#N)c3ccc(OC)cc3n2CC)cc1C [Compound 965] | 0.5 to 2 µM |

| SMILES | IC50 |
| --- | --- |
| CCCCNC(=O)Nc1cccc(-c2c(C#N)c3ccc(OCC)cc3n2CCCC)c1 [Compound 1023] | 0.5 to 2 µM |
| CCN(c1ccc(-c2c(C#N)c3ccc(C(F)(F)F)cc3n2CC)cc1)S(C)(=O)=O [Compound 1003] | 0.5 to 2 µM |
| CCCNC(=O)Nc1ccc(-c2c(C#N)c3ccc(OCC)cc3n2C(C)C)cc1 [Compound 1099] | 0.5 to 2 µM |
| CCCOc1ccc2c(C#N)c(-c3ccc(NC(=O)OC(C)C4CC4)cc3)n(C(C)C)c2c1 (stereo not drawn) [Compound 1242] | < 0.5 µM |
| CCOc1ccc2c(C#N)c(-c3ccc(NC(=O)OC4CCOC4)cc3)n(C3CCC3)c2c1 (stereo not drawn) [Compound 1215] | < 0.5 µM |
| CC(C)NC(=O)Nc1ccc(-c2c(C#N)c3ccc(OCCCN4CCOCC4)cc3n2C2CCC2)cc1 [Compound 1306] | 0.5 to 2 µM |
| CCCOc1ccc2c(C#N)c(-c3ccc(NC(=O)NC4CC4)cc3)n(C(C)C)c2c1 [Compound 1325] | < 0.5 µM |
| COc1ccc2c(c1)c(C#N)c(-c1ccc(NS(=O)(=O)C(C)C)cc1)n2C1CCC1 [Compound 1231] | 0.5 to 2 µM |
| CCCCNC(=O)Nc1ccc(-c2c(C#N)c3cc(OCC)ccc3n2C2CCC2)cc1 [Compound 1225] | 0.5 to 2 µM and < 0.5 µM |
| CCn1c(-c2ccc(NC(=O)OC)c(C)c2)c(C#N)c2ccc(OC)cc21 [Compound 963] | 0.5 to 2 µM |
| CCOc1ccc2c(C#N)c(-c3ccc(NC(=O)OCC(C)C)cc3)n(C3CCC3)c2c1 [Compound 979] | < 0.5 µM |
| N#Cc1cn(CC2CC2)c2cc(OC(F)F)ccc12 [Compound 940] | 0.5 to 2 µM |
| CCCCNC(=O)Nc1ccc(-c2c(C#N)c3ccc(OCC)cc3n2CCCC)cc1 [Compound 1018] | < 0.5 µM |
| CC(C)OC(=O)Nc1ccc(-c2c(C#N)c3ccc(OCc4ccccn4)cc3n2C2CCC2)cc1 [Compound 1220] | < 0.5 µM |
| CCn1c(-c2ccc(NP(=O)(OC)OC)cc2)c(C#N)c2ccc(OC)cc21 [Compound 944] | 0.5 to 2 µM |
| CCn1c(-c2ccc(NS(=O)(=O)C3CC3)c(C)c2)c(C#N)c2ccc(OC)cc21 [Compound 962] | 0.5 to 2 µM |
| CCOc1ccc2c(c1)c(C#N)c(-c1ccc(NC(=O)OC3CCC3)cc1)n2C1CCC1 [Compound 1292] | < 0.5 µM |
| CCOc1ccc2c(c1)c(C#N)c(-c1ccc(NS(=O)(=O)CC)cc1)n2C1CCC1 [Compound 1228] | 0.5 to 2 µM |
| CCCS(=O)(=O)Nc1ccc(-c2c(C#N)c3ccc(OC)cc3n2C2CC2)cc1 [Compound 1235] | 0.5 to 2 µM |
